From article PMC9854728, “Synthesis and Antioxidant Properties of Novel 1,2,3-Triazole-Containing Nitrones” (Antioxidants, 2022)
Read-outs that look alike come from different tables or passages of the source.

Columns and labels:
[1] = Inhibition of linoleic acid peroxidation (ILP) induced by AAPH; details: tested at 100 µM, 37 °C
Protocol: (§1) The in vitro antioxidant assays for nitrones 8 and 9 were performed concentrations of 100 µM (from a stock solution 10 mM in 0.1% DMSO in deionized water). Several dilutions were made when the determination of IC50 values was needed. All the determinations were made, at least in triplicate, and the standard deviation of absorbance was less than 10% of the mean. The nitrones were diluted under sonification in the appropriate buffer in several dilutions (Table 1).
The production of conjugated diene hydroperoxide by the oxidation of linoleate sodium 16 mM linoleate sodium (10 µL) in an aqueous solution is monitored at 234 nm. AAPH 40 mM (50 µL) is used as a free radical initiator at 37 °C under air conditions, followed by the tested nitrones. This assay can be used to follow oxidative changes by recording the absorbance values at 234 nm, using Trolox as a reference compound. The experimental procedure follows our previously reported protocol.

[2] = Competition with DMSO for hydroxyl radicals; details: tested at 100 µM, Fe3+/ascorbic acid system, 37 °C, 30 min; no = no activity
Protocol: as §1
The hydroxyl radicals, produced by the Fe^3+/ascorbic acid system, were detected by the determination of formaldehyde produced from the oxidation of DMSO [8]. Solutions of EDTA (0.1 mM), Fe^3+ (167 μM), DMSO (33 mM) in phosphate buffer (50 mM, pH 7.4), as well as the tested compounds (10 μL final concentration 100 μM) and ascorbic acid (10 mM) were mixed in test tubes and incubated at 37 °C for 30 min. The reaction was stopped by adding CCl3COOH (17% w/v), and the % competition activity of the nitrones 8 and 9 with DMSO for hydroxyl radicals was calculated. Trolox was used as a positive control.

[3] = molecular target: T1, soybean lipoxygenase (LOX) (Glycine max, UniProt P08170); assay: In vitro inhibition of soybean lipoxygenase (LOX); format: biochemical; details: for inhibition at 100 µM / LOX Inhibition (%): tested at 100 µM, no = no activity under the experimental conditions; for LOX Inhibition (%): 100 µM
T1 construct: purchased Aldrich Chemical Co. (Milwaukee, WI, USA)
T1 sequence (P08170 1-839): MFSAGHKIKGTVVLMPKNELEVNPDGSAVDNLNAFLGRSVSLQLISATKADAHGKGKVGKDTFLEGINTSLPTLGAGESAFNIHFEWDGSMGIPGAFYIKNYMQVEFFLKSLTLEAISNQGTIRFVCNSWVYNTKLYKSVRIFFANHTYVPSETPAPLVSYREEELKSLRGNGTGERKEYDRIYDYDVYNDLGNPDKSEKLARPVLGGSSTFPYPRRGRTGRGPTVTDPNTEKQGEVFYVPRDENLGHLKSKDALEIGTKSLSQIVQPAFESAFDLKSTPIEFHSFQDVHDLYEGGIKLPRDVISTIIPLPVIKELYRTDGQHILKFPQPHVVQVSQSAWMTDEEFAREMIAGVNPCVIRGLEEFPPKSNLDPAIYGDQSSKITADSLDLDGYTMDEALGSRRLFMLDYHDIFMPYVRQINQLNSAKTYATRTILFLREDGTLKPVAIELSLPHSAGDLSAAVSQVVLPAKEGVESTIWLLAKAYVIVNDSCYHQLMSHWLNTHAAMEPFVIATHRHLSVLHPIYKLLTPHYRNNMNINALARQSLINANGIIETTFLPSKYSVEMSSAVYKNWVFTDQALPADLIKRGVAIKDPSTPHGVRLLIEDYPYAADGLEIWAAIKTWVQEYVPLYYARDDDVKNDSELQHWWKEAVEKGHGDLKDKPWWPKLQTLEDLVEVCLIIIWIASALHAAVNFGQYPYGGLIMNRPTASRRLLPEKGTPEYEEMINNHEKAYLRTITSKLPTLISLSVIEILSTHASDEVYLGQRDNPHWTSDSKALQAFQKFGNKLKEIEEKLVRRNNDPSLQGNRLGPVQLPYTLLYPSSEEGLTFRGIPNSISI
Protocol: as §1, with “All the determinations were made, at least in triplicate, and the standard deviation of absorbance was less than 10% of the mean.” left out
The in vitro study was evaluated as reported previously. Compounds 8a–f or 9a–f (10 μL) were incubated at rt with sodium linoleate (0.1 mM) and 200 μL of enzyme solution (1/9 × 10^–4 w/v in saline). Tris buffer pH 9 was inserted. The conversion of sodium linoleate to 13-hydroperoxylinoleic acid was recorded at 234 nm. […] Several dilutions of compounds were used for the determination of IC50 values. Blank determination served as the negative control.

[4] = ABTS radical cation decolorization assay; details: tested at 100 µM, 1 min, 734 nm; no = no activity
Protocol: as §1
ABTS stock solution in water (7 mM) was mixed with potassium persulfate (2.45 mM) and left in the dark at rt for 12–16 h before use, followed by the production of the ABTS radical cation (ABTS^+·). The assay was performed as described previously. The results were recorded after 1 min of the mixing solutions at 734 nm. Trolox was used as a positive control.

[5] = soybean LOX, sodium linoleate 0.1 mM, Tris buffer pH 9, read-out: LOX Inhibition IC50

Compound | ILP (%) [1] [%] | Scavenging Activity for HO• (%) [2] | IC50 [3, 5] [µM] | melting point [°C] | ABTS+• (%) [4] | inhibition at 100 µM [3] [%] | LOX Inhibition (%) [3] | IC50 [3] [µM] | LOX Inhibition IC50 ([3]; soybean LOX, sodium linoleate 0.1 mM, Tris buffer pH 9) | LOX inhibition, fold less potent than NDGA ([3]; IC50 27 μM vs NDGA […]) [fold]
C[N+]([O-])=CCn1cc(-c2ccccc2)nn1 [Nitrone 8a, N-(2-(4-Phenyl-1H-1,2,3-Triazol-1-yl)Ethylidene)Methanamine Oxide] | 48.4 | 93% | 37.5 | 97 to 98 | 14% | – | – | – | – | –
C[N+]([O-])=CCn1cc(-c2ccccc2F)nn1 [Nitrone 8b, N-(2-(4-(2-Fluorophenyl)-1H-1,2,3-Triazol-1-yl)Ethylidene)Methanamine Oxide] | 2 | 61% | – | 125 to 126 | 13% | 24 | – | – | – | –
C[N+]([O-])=CCn1cc(-c2cccc(F)c2)nn1 [Nitrone 8c, N-(2-(4-(3-Fluorophenyl)-1H-1,2,3-Triazol-1-yl)Ethylidene)Methanamine Oxide] | 65 | 59% | – | 158 to 160 | no | 40 | – | – | – | –
C[N+]([O-])=CCn1cc(-c2ccc(F)cc2)nn1 [Nitrone 8d, N-(2-(4-(4-Fluorophenyl)-1H-1,2,3-Triazol-1-yl)Ethylidene)Methanamine Oxide] | 54 | 80% | – | 165 to 167 | 5.3% | – | loses its activity and no | – | – | –
C[N+]([O-])=CCn1cc(-c2ccc(F)cc2F)nn1 [Nitrone 8e, N-(2-(4-(2,4-Difluorophenyl)-1H-1,2,3-Triazol-1-yl)Ethylidene)Methanamine Oxide] | 87 | 76% | – | 122 to 123 | no | – | – | 87.5 | – | –
Cc1cc(-c2cn(CC=[N+](C)[O-])nn2)ccc1F [Nitrone 8f, N-(2-(4-(4-Fluoro-3-Methylphenyl)-1H-1,2,3-Triazol-1-yl)Ethylidene)Methanamine Oxide] | 41 | 91.5% | – | 171 to 173 | 34.3% | 44 | – | – | – | –
CC(C)(C)[N+]([O-])=CCn1cc(-c2ccccc2)nn1 [Nitrone 9a, 2-Methyl-N-(2-(4-Phenyl-1H-1,2,3-Triazol-1-yl)Ethylidene)Propan-2-Amine Oxide] | 74.5 | 76% | – | 91 to 93 | 4% | 44 | – | – | – | –
CC(C)(C)[N+]([O-])=CCn1cc(-c2ccccc2F)nn1 [Nitrone 9b, N-(2-(4-(2-Fluorophenyl)-1H-1,2,3-Triazol-1-yl)Ethylidene)-2-Methylpropan-2-Amine Oxide] | 73 | 76% | 40 | 72 to 73 | no | – | – | – | – | –
CC(C)(C)[N+]([O-])=CCn1cc(-c2cccc(F)c2)nn1 [Nitrone 9c, N-(2-(4-(3-Fluorophenyl)-1H-1,2,3-Triazol-1-yl)Ethylidene)-2-Methylpropan-2-Amine Oxide] | – | 89% | – | 94 to 95 | no | – | no inhibition and no | – | – | –
CC(C)(C)[N+]([O-])=CCn1cc(-c2ccc(F)cc2)nn1 [Nitrone 9d, N-(2-(4-(4-Fluorophenyl)-1H-1,2,3-Triazol-1-yl)Ethylidene)-2-Methylpropan-2-Amine Oxide] | – | 99% | 100 | 128 to 131 | no | – | – | – | – | –
CC(C)(C)[N+]([O-])=CCn1cc(-c2ccc(F)cc2F)nn1 [Nitrone 9e, N-(2-(4-(2,4-Difluorophenyl)-1H-1,2,3-Triazol-1-yl)Ethylidene)-2-Methylpropan-2-Amine Oxide] | 100 | 100% | 100 | 122 to 123 | no | – | – | – | equipotent to the 9d | –
Cc1cc(-c2cn(CC=[N+]([O-])C(C)(C)C)nn2)ccc1F [Nitrone 9f, N-(2-(4-(4-Fluoro-3-Methylphenyl)-1H-1,2,3-Triazol-1-yl)Ethylidene)-2-Methylpropan-2-Amine Oxide] | 87 | 99.9% | 27 | 104 to 107 | 16% | – | – | – | – | 60
CC(C)(C)/[N+]([O-])=C/c1ccccc1 [PBN, (Z)-N-tert-butyl-1-phenylmethanimine oxide, reference compound] | 11 | no | – | – | 5% | – | – | – | – | –
Cc1c(C)c2c(c(C)c1O)CCC(C)(C(=O)O)O2 (stereo not drawn) [Trolox, reference compound] | 93 | 88% | – | – | 91% | – | – | – | – | –
